These results are taken from ChEMBL document CHEMBL5724914, “Linking interpersonal differences in gut microbiota composition and drug biotransformation activity” (2024).

Structures are written as SMILES.

Series [1] is described as follows: The drug is tested on WLS-039 corresponding to human gut metagenome with ENA study accession number: PRJEB37062 and ENA sample accession number: ERS12561746 for biotransformation under anaerobic condition. The drug concentrations were measured over 9 timepoints collected between 0 and 24 hours of incubation by liquid-chromatography-coupled mass spectrometry (LC–MS). The note with it: 2 µM.

The conditions of series [2]: human gut metagenome, 24 h, 2 µM.
Series [3] can be described thus: The drug is tested on Z-004 corresponding to metagenome with ENA study accession number: PRJEB37062 and ENA sample accession number: ERS12561804 for biotransformation under anaerobic condition. The drug concentrations were measured over 9 timepoints collected between 0 and 24 hours of incubation by liquid-chromatography-coupled mass spectrometry (LC–MS). The conditions noted are these: 2 µM.

For series [4] the following is noted: human gut metagenome, 24 h, 2 µM. The source holds these as a separate data set.
The nature of series [5]: The drug is tested on WLS-006 corresponding to human gut metagenome with ENA study accession number: PRJEB37062 and ENA sample accession number: ERS12561741 for biotransformation under anaerobic condition. The drug concentrations were measured over 9 timepoints collected between 0 and 24 hours of incubation by liquid-chromatography-coupled mass spectrometry (LC–MS). The conditions noted are these: 2 µM.

For series [6] the following is noted: human gut metagenome, 24 h, 2 µM. This is another data set of the same source.
Series [7] is described as follows: The drug is tested on WLS-098 corresponding to human gut metagenome with ENA study accession number: PRJEB37062 and ENA sample accession number: ERS12561754 for biotransformation under anaerobic condition. The drug concentrations were measured over 9 timepoints collected between 0 and 24 hours of incubation by liquid-chromatography-coupled mass spectrometry (LC–MS). The conditions noted are these: 2 µM.

For series [8] the following is noted: human gut metagenome, 24 h, 2 µM. This is another data set of the same source.
Series [9] can be described thus: The drug is tested on Z-030 corresponding to mouse gut metagenome with ENA study accession number: PRJEB37062 and ENA sample accession number: ERS12561829 for biotransformation under anaerobic condition. The drug concentrations were measured over 9 timepoints collected between 0 and 24 hours of incubation by liquid-chromatography-coupled mass spectrometry (LC–MS). The note with it: 2 µM.

A short description of series [10]: The drug is tested on Z-005 corresponding to metagenome with ENA study accession number: PRJEB37062 and ENA sample accession number: ERS12561805 for biotransformation under anaerobic condition. The drug concentrations were measured over 9 timepoints collected between 0 and 24 hours of incubation by liquid-chromatography-coupled mass spectrometry (LC–MS). The note with it: 2 µM.

The conditions of series [11]: human gut metagenome, 24 h, 2 µM. This is another data set of the same source.
A short description of series [12]: The drug is tested on Z-025 corresponding to rabbit gut metagenome with ENA study accession number: PRJEB37062 and ENA sample accession number: ERS12561824 for biotransformation under anaerobic condition. The drug concentrations were measured over 9 timepoints collected between 0 and 24 hours of incubation by liquid-chromatography-coupled mass spectrometry (LC–MS). The conditions noted are these: 2 µM.

For series [13] the following is noted: human gut metagenome, 24 h, 2 µM. The source holds these as a separate data set.
The nature of series [14]: The drug is tested on WLS-086 corresponding to human gut metagenome with ENA study accession number: PRJEB37062 and ENA sample accession number: ERS12561752 for biotransformation under anaerobic condition. The drug concentrations were measured over 9 timepoints collected between 0 and 24 hours of incubation by liquid-chromatography-coupled mass spectrometry (LC–MS). The note with it: 2 µM.

Series [15] is described as follows: The drug is tested on WLS-310 corresponding to human gut metagenome with ENA study accession number: PRJEB37062 and ENA sample accession number: ERS12561785 for biotransformation under anaerobic condition. The drug concentrations were measured over 9 timepoints collected between 0 and 24 hours of incubation by liquid-chromatography-coupled mass spectrometry (LC–MS). The note with it: 2 µM.

For series [16] the following is noted: human gut metagenome, 24 h, 2 µM. The source holds these as a separate data set.
The nature of series [17]: The drug is tested on Z-008 corresponding to metagenome with ENA study accession number: PRJEB37062 and ENA sample accession number: ERS12561808 for biotransformation under anaerobic condition. The drug concentrations were measured over 9 timepoints collected between 0 and 24 hours of incubation by liquid-chromatography-coupled mass spectrometry (LC–MS). The conditions noted are these: 2 µM.

For series [18] the following is noted: human gut metagenome, 24 h, 2 µM. The source holds these as a separate data set.
Series [19] in a line: The drug is tested on WLS-090 corresponding to human gut metagenome with ENA study accession number: PRJEB37062 and ENA sample accession number: ERS12561753 for biotransformation under anaerobic condition. The drug concentrations were measured over 9 timepoints collected between 0 and 24 hours of incubation by liquid-chromatography-coupled mass spectrometry (LC–MS). The note with it: 2 µM.

Series [20] in a line: The drug is tested on Z-016 corresponding to mouse gut metagenome with ENA study accession number: PRJEB37062 and ENA sample accession number: ERS12561815 for biotransformation under anaerobic condition. The drug concentrations were measured over 9 timepoints collected between 0 and 24 hours of incubation by liquid-chromatography-coupled mass spectrometry (LC–MS). The conditions noted are these: 2 µM.
Also: call rule not given here.

On to `N#Cc1ccc(C(c2ccc(C#N)cc2)n2cncn2)cc1` [LETROZOLE], for which the “Bacterial Biotransformation” value in series [1], in [2], in [3], in series [4], in series [5] and in series [6] was “Compound NOT metabolized” each time. In addition, the “Bacterial Biotransformation” value in [7], in series [8], in [9], in series [10], in series [11] and in [12] was “Compound NOT metabolized” each time. Also, the “Bacterial Biotransformation” value in series [13], in series [14], in series [15], in [16], in series [17] and in [18] was “Compound NOT metabolized” in each case. In addition, the “Bacterial Biotransformation” value in [19] and in [20] was “Compound NOT metabolized” throughout.
As to `CC(Oc1c(Cl)cccc1Cl)C1=NCCN1` (stereo not given) [LOFEXIDINE], the “Bacterial Biotransformation” value is “Compound NOT metabolized” in [1]; “Compound metabolized” in series [2]; “Compound NOT metabolized” in series [3]; “Compound NOT metabolized” in series [4]; “Compound NOT metabolized” in series [5]; “Compound NOT metabolized” in series [6]. Besides, the “Bacterial Biotransformation” value is listed as “Compound metabolized” in [7]; “Compound NOT metabolized” in series [8]; “Compound NOT metabolized” in series [9]; “Compound NOT metabolized” in series [10]; “Compound NOT metabolized” in series [11]; “Compound NOT metabolized” in series [12]. The “Bacterial Biotransformation” value in series [13] is “Compound metabolized”; in [14] it was “Compound metabolized”; in series [15], “Compound metabolized”; in [16], “Compound NOT metabolized”; in series [17] it was “Compound NOT metabolized”; in series [18], “Compound NOT metabolized”. Besides, the figures for the “Bacterial Biotransformation” value in series [19] and in [20] were “Compound metabolized” and “Compound NOT metabolized”, respectively.
Consider `CN(C)C(=O)C(CCN1CCC(O)(c2ccc(Cl)cc2)CC1)(c1ccccc1)c1ccccc1` [LOPERAMIDE], for which the “Bacterial Biotransformation” value in series [1], in series [2], in series [3], in series [4], in [5] and in [6] was “Compound metabolized” throughout. Moreover, the “Bacterial Biotransformation” value in [7] was “Compound metabolized”; in series [8] it was “Compound metabolized”; in [9], “Compound NOT metabolized”; in series [10], “Compound metabolized”; in series [11], “Compound metabolized”; in [12] it was “Compound metabolized”. Moreover, the “Bacterial Biotransformation” value in series [13] is recorded as “Compound metabolized”; in series [14], “Compound metabolized”; in series [15], “Compound metabolized”; in [16] it was “Compound metabolized”; in series [17] it was “Compound NOT metabolized”; in series [18], “Compound metabolized”. The “Bacterial Biotransformation” value in series [19] and in series [20] was “Compound metabolized” each time.
`CCCCc1nc(Cl)c(CO)n1Cc1ccc(-c2ccccc2-c2nn[nH]n2)cc1` [LOSARTAN]: the “Bacterial Biotransformation” value is on record as “Compound NOT metabolized” in [1]; “Compound metabolized” in series [2]; “Compound NOT metabolized” in series [3]; “Compound metabolized” in series [4]; “Compound metabolized” in series [5]; “Compound metabolized” in [6]. Also, the “Bacterial Biotransformation” value in series [7] is on record as “Compound metabolized”; in series [8], “Compound metabolized”; in series [9] it was “Compound NOT metabolized”; in series [10], “Compound NOT metabolized”; in [11], “Compound metabolized”; in series [12] it was “Compound NOT metabolized”. Moreover, the “Bacterial Biotransformation” value in [13] was “Compound NOT metabolized”; in series [14], “Compound metabolized”; in series [15] it was “Compound metabolized”; in series [16], “Compound NOT metabolized”; in [17] it was “Compound NOT metabolized”; in [18], “Compound metabolized”. Further, the “Bacterial Biotransformation” value is “Compound metabolized” in [19] and “Compound NOT metabolized” in series [20].
For `COC(=O)Nc1nc2ccc(C(=O)c3ccccc3)cc2[nH]1` [MEBENDAZOLE], the “Bacterial Biotransformation” value in series [1], in series [2], in series [3], in series [4], in [5] and in series [6] was “Compound metabolized” in each case. Moreover, the “Bacterial Biotransformation” value was “Compound metabolized” in [7]; “Compound metabolized” in series [8]; “Compound NOT metabolized” in series [9]; “Compound metabolized” in [10]; “Compound NOT metabolized” in series [11]; “Compound metabolized” in series [12]. The “Bacterial Biotransformation” value in series [13], in series [14], in series [15], in series [16], in series [17] and in series [18] was “Compound metabolized” each time. In addition, the “Bacterial Biotransformation” value in [19] and in series [20] was “Compound metabolized” in each case.
Regarding `COc1ccccc1OCC(O)COC(N)=O` (stereo not given) [METHOCARBAMOL], the “Bacterial Biotransformation” value in series [1], in series [2], in series [3], in series [4], in [5] and in [6] was “Compound NOT metabolized” throughout. The “Bacterial Biotransformation” value in series [7], in series [8], in series [9], in series [10], in series [11] and in [12] was “Compound NOT metabolized” each time. For the same molecule, the “Bacterial Biotransformation” value in [13], in series [14], in series [15], in series [16], in series [17] and in series [18] was “Compound NOT metabolized” throughout. Moreover, the “Bacterial Biotransformation” value in [19] and in series [20] was “Compound NOT metabolized” throughout.
